Where two headings read alike, the source gives them in different places.
Tests used:
[1] = Quantitative splicing assay (HTT), qPCR; type: cell-based, human; details: Homo sapiens, GM04724, 24 h, GM04724 lymphoblasts, read-out: HTT Splicing: E49-50 EC50
Outline: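 Patient lymphoblasts (50,000 cells/well) dosed immediately after plating for 24 h at 2.5 uM to 0.15 nM in 0.1% DMSO. Lysed, cDNA made directly from cells, and inclusion of the intron 49 cryptic exon quantified by TaqMan qPCR.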

[2] = test system: mHTT protein in GM04724 (CAG 70/20) Huntington's disease patient lymphoblast cells; assay: mHTT protein assay, 2B7-MW1 assay via Mesoscale Discovery (MSD); type: cell-based, human
Outline: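 Patient lymphoblasts treated 48 h with compound from 10 μM to 0.6 nM. mHTT quantified by MSD 2B7-MW1 immunoassay, whose signal depends on polyQ expansion and HTT size. Viability measured on a replicate plate by CellTiter Glo.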

[3] = test system: SMN FL and SMN Δ7 in spinal muscular atrophy (SMA) patient fibroblasts (GM03813, Coriell); assay: Quantitative splicing assay (SMN), qPCR; type: cell-based, human; details: Homo sapiens, Fibroblast, 24 h, 24 h, read-out: SMN2 Splicing FL EC50
Procedure: Spinal muscular atrophy (SMA) patient fibroblasts (GM03813, Coriell) are plated in 96-well plates at 50,000 cells/well. […] Treated cells are lysed and cDNA synthesized using the Fast Advanced Cells-to-Ct kit (Thermofisher A35378) according to the manufacturer's instructions. 2 μL of each cDNA are used in qPCR reactions. […] Reactions are run in a Quant Studio 6 qPCR instrument with default settings.

[4] = test system: SMN protein in spinal muscular atrophy (SMA) patient fibroblasts (GM03813, Coriell); assay: SMN protein assay, Mesoscale Discovery (MSD); type: cell-based, human; details: read-out: SMN2 protein EC50
Outline: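 SMA patient fibroblasts (GM03813) seeded at 7000 cells/well and exposed to compound at 2.5 μM to 0.6 nM for 48 hours. Lysates assayed for SMN by MSD immunoassay, with absolute SMN amount calculated from a per-plate SMN standard curve (1 μg/ml to 19.5 pg/ml).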

[5] = test system: MDR1 (P-gp); assay: Blood-brain-barrier (BBB) penetration potential via MDCK-MDR1 permeability assay; details: dog; for Papp A→B at 120 min, 5 μM: MDCK-MDR1, pH 7.4, MDCK-MDR1: Papp A-B; for Papp B→A at 120 min, 5 μM: MDCK-MDR1, pH 7.4, MDCK-MDR1: Papp B-A
Procedure: (§1) Example A13: Assessment of Blood-Brain-Barrier (BBB) Penetration Potential Via an MDCK-MDR1 Permeability Assay
(§2) The permeability of compounds is assessed for BBB penetration potential by use of an MDCK-MDR1 assay (Catalog EA203) performed by Absorption Systems, Exton PA.
(§3) Experimental Procedure: MDR1-MDCK cell monolayers are grown to confluence on collagen-coated, microporous membranes in 12-well assay plates. The permeability assay buffer is Hanks' balanced salt solution containing 10 mM HEPES and 15 mM glucose at a pH of 7.4. The buffer in the receiver chamber also contained 1% bovine serum albumin. The dosing solution concentration is 5 μM of test article in the assay buffer. Cell monolayers are dosed on the apical side (A-to-B) or basolateral side (B-to-A) and incubated at 37° C. with 5% CO2 in a humidified incubator. Samples are taken from the donor and receiver chambers at 120 minutes. Each determination is performed in duplicate. The flux of lucifer yellow is also measured post-experimentally for each monolayer to ensure no damage is inflicted to the cell monolayers during the flux period. All samples are assayed by LC-MS/MS using electrospray ionization.
(§4) The apparent permeability (Papp) and percent recovery are calculated as follows:
(§5) Analytical Method: Liquid Chromatography. Column: Waters ACQUITY UPLC BEH Phenyl 30 ×2.1 mm, 1.7 μm; M.P. Buffer. 25 mM ammonium formate buffer, pH 3.5; Aqueous Reservoir (A): 90% water, 10% buffer, Organic Reservoir (B): 90% acetonitrile, 10% buffer, Flow Rate: 0.7 mL/minute; Gradient Program:
(§6) • Total Run Time: 1.00 minute • Autosampler. 2 μL injection volume • Wash1: water/methanol/2-propanol:1/1/1; with 0.2% formic acid • Wash2: 0.1% formic acid in water • Brain Penetration • Potential Classification: A-B Papp≥3.0 and Efflux Ratio <3.0: High • A-B Papp≥3.0 and 10≥Efflux Ratio >3.0: Moderate • A-B Papp≥3.0 and Efflux Ratio≥10: Low • A-B Papp<3.0: Low

[6] = test system: MDR1-MDCK cell monolayers; assay: as above
Procedure: as §1, §2, §3, §4, §5, §6

[7] = test system: MDR1; assay: as above; details: dog, MDCK-MDR1, pH 7.4, MDCK-MDR1: Efflux
Procedure: as §1, §2, §3, §4, §5, §6

[8] = GM04724 (CAG 70/20) Huntington's disease patient lymphoblasts
[9] = SMA patient fibroblasts (GM03813)
[10] = SMA patient fibroblasts (GM03813), 48 hours
[11] = GM04724 Huntington's disease patient lymphoblasts
[12] = SMA patient fibroblasts GM03813, 24 h, qPCR
[13] = SMA patient fibroblasts GM03813, 48 hours, MSD

SMILES | EC50 [1] [nM] | EC50 [2, 8] [nM] | EC50 [3, 9] [nM] | EC50 [4, 10] [nM] | Papp A→B at 120 min, 5 μM ([5]; A-B) [×10⁻⁶ cm/s] | Papp B→A at 120 min, 5 μM ([5]; B-A) [×10⁻⁶ cm/s] | MDCK-MDR1: % Recov A-B ([6]; A-B) [%] | MDCK-MDR1: % Recov B-A ([6]; B-A) [%] | efflux ratio at 120 min, 5 μM [7] | EC50 ([1]; qPCR) [nM] | EC50 [2, 11] [nM] | EC50 [3, 12] [nM] | EC50 [4, 13] [nM] | Papp A→B at 120 min, 5 μM ([5]; A-B direction) [×10⁻⁶ cm/s] | Papp B→A at 120 min, 5 μM ([5]; B-A direction) [×10⁻⁶ cm/s] | MDCK-MDR1: % Recov A-B ([6]; A-B direction) [%] | MDCK-MDR1: % Recov B-A ([6]; B-A direction) [%] | efflux ratio at 120 min, 5 μM ([7]; efflux ratio)
Cc1nc2cc(O)c(-c3ccc(N(C)[C@H]4C[C@@H]5CC[C@@H](N5)[C@H]4F)nn3)cc2o1 [Compound 117B, 6-(6-(((1R,2R,3S,5S)-2-fluoro-8-azabicyclo[3.2.1]octan-3-yl)(methyl)amino)pyridazin-3-yl)-2-methylbenzo[d]oxazol-5-ol] | 16 to 50 | 0.01 to 15 | 16 to 50 | 0.01 to 15 | 4.32 | 45 | 90 | 86 | 10 | – | – | – | – | – | – | – | – | –
CN(c1ccc(-c2ccc(-c3cn[nH]c3)cc2O)nn1)[C@H]1C[C@@H]2CC[C@@H](N2)[C@H]1F (single isomer, unassigned) [Compound 42B] | – | – | – | – | – | – | – | – | – | 0.01 to 15 | 0.01 to 15 | 0.01 to 15 | 0.01 to 15 | 0.71 | 27.7 | 78 | 73 | 39
Cc1cc(=O)c2cc(O)c(-c3ccc(N(C)[C@H]4C[C@@H]5CC[C@@H](N5)[C@H]4F)nn3)cc2o1 [Compound 49B, 7-(6-(((1R,2R,3S,5S)-2-fluoro-8-azabicyclo[3.2.1]octan-3-yl)(methyl)amino)pyridazin-3-yl)-6-hydroxy-2-methyl-4H-chromen-4-one] | – | – | – | – | – | – | – | – | – | 0.01 to 15 | 0.01 to 15 | 0.01 to 15 | 0.01 to 15 | 0.86 | 32.9 | 86 | 91 | 38
CN(c1ccc(-c2ccc(-c3ccn(C)n3)cc2O)nn1)[C@H]1C[C@@H]2CC[C@@H](N2)[C@H]1F (single isomer, unassigned) [Compound 36B] | – | – | – | – | – | – | – | – | – | 0.01 to 15 | 0.01 to 15 | 0.01 to 15 | 0.01 to 15 | 5.87 | 41.8 | 72 | 79 | 7
Cc1ccc(-c2ccc(-c3ccc(N(C)[C@H]4C[C@@H]5CCC[C@@H](N5)[C@H]4F)nn3)c(O)c2)nn1 [Compound 27B, 2-(6-(((1R,2R,3S,5S)-2-fluoro-9-azabicyclo[3.3.1]nonan-3-yl)(methyl)amino)pyridazin-3-yl)-5-(6-methylpyridazin-3-yl)phenol] | – | – | – | – | – | – | – | – | – | 16 to 50 | 0.01 to 15 | 0.01 to 15 | 0.01 to 15 | 1.13 | 43.5 | 98 | 115 | 38
CN(c1ccc(-c2cc3ccncc3cc2O)nn1)[C@@H]1C[C@H]2CC[C@H](N2)[C@@H]1F (single isomer, unassigned) [Compound 87A] | – | – | – | – | – | – | – | – | – | 51 to 100 | 51 to 100 | 101 to 500 | 0.01 to 15 | 5.33 | 43.1 | 59 | 79 | 8
CN(c1ccc(-c2cc3cccnc3cc2O)nn1)[C@H]1C[C@@H]2CCC[C@@H](N2)[C@H]1F [Compound 41B, 6-(6-(((1R,2R,3S,5S)-2-fluoro-9-azabicyclo[3.3.1]nonan-3-yl)(methyl)amino)pyridazin-3-yl)quinolin-7-ol] | – | – | – | – | – | – | – | – | – | 16 to 50 | 0.01 to 15 | 16 to 50 | 0.01 to 15 | 2.57 | 36.7 | 60 | 95 | 14
CN(c1ccc(-c2cc3c(=O)n(C)ccc3cc2O)nn1)[C@@H]1C[C@H]2CC[C@H](N2)[C@@H]1F [Compound 83A, 7-(6-(((1S,2S,3R,5R)-2-fluoro-8-azabicyclo[3.2.1]octan-3-yl)(methyl)amino)pyridazin-3-yl)-6-hydroxy-2-methylisoquinolin-1(2H)-one] | – | – | – | – | – | – | – | – | – | 0.01 to 15 | 0.01 to 15 | 0.01 to 15 | 0.01 to 15 | 0.98 | 43.5 | 89 | 83 | 44
CN(c1ccc(-c2ccc(-n3nccn3)cc2O)nn1)[C@H]1C[C@@H]2CC[C@@H](N2)[C@H]1F [Compound 90B, 2-(6-(((1R,2R,3S,5S)-2-fluoro-8-azabicyclo[3.2.1]octan-3-yl)(methyl)amino)pyridazin-3-yl)-5-(2H-1,2,3-triazol-2-yl)phenol] | – | – | – | – | – | – | – | – | – | 0.01 to 15 | 0.01 to 15 | 0.01 to 15 | 16 to 50 | 6.56 | 16.1 | 43 | 67 | 2
Cc1ccc(-c2ccc(-c3ccc(N(C)[C@H]4C[C@@H]5CC[C@@H](N5)[C@H]4F)nn3)c(O)c2)nn1 (single isomer, unassigned) [Compound 25B] | – | – | – | – | – | – | – | – | – | 16 to 50 | 16 to 50 | 16 to 50 | 0.01 to 15 | 1.61 | 46.8 | 105 | 108 | 29
CN(c1ccc(-c2ccc(-c3cnc(C#N)cn3)cc2O)nn1)[C@H]1C[C@@H]2CCC[C@@H](N2)[C@H]1F [Compound 28B, 5-(4-(6-(((1R,2R,3S,5S)-2-fluoro-9-azabicyclo[3.3.1]nonan-3-yl)(methyl)amino)pyridazin-3-yl)-3-hydroxyphenyl) pyrazine-2-carbonitrile] | – | – | – | – | – | – | – | – | – | 0.01 to 15 | 16 to 50 | 0.01 to 15 | 0.01 to 15 | 1.11 | 38.9 | 36 | 70 | 35
Cc1cc(=O)c2cc(O)c(-c3ccc(N(C)[C@@H]4C[C@H]5CC[C@H](N5)[C@@H]4F)nn3)cc2o1 [Compound 49A, 7-(6-(((1S,2S,3R,5R)-2-fluoro-8-azabicyclo[3.2.1]octan-3-yl)(methyl)amino)pyridazin-3-yl)-6-hydroxy-2-methyl-4H-chromen-4-one] | – | – | – | – | – | – | – | – | – | 16 to 50 | 16 to 50 | 0.01 to 15 | 0.01 to 15 | 0.72 | 30.7 | 93 | 78 | 43
CN(c1ccc(-c2ccc(-c3ccn(C)n3)cc2O)nn1)[C@@H]1C[C@H]2CC[C@H](N2)[C@@H]1F (single isomer, unassigned) [Compound 36A] | – | – | – | – | – | – | – | – | – | 16 to 50 | 16 to 50 | 16 to 50 | 0.01 to 15 | 3.68 | 38.6 | 68 | 82 | 10
Cc1nc2cc(O)c(-c3ccc(N(C)[C@@H]4C[C@H]5CC[C@H](N5)[C@@H]4F)nn3)cc2o1 [Compound 117A, 6-(6-(((1S,2S,3R,5R)-2-fluoro-8-azabicyclo[3.2.1]octan-3-yl)(methyl)amino)pyridazin-3-yl)-2-methylbenzo[d]oxazol-5-ol] | 51 to 100 | 16 to 50 | 101 to 500 | 16 to 50 | 6.87 | 39.9 | 84 | 97 | 6 | – | – | – | – | – | – | – | – | –
